Patent publication US8399497B2, “Thiazole derivatives and use thereof” (Merck Serono SA, priority 2005, dated 2013)

Assays:
[1] = target: Human recombinant GST-PI3Kγ (Homo sapiens, UniProt P48736); experiment: High throughput PI3K lipid kinase assay (SPA, neomycin-coated beads); format: biochemical
From the text: a) High Throughput PI3K Lipid Kinase Assay (Binding Assay):
The efficacy of compounds of the invention in inhibiting the PI3K induced-lipid phosphorylation may be tested in the following binding assay.
The assay combines the scintillation proximity assay technology (SPA, Amersham) with the capacity of neomycin (a polycationic antibiotic) to bind phospholipids with high affinity and specificity. The Scintillation Proximity Assay is based on the properties of weakly emitting isotopes (such as ^3H, ^125I, ^33P). Coating SPA beads with neomycin allows the detection of phosphorylated lipid substrates after incubation with recombinant PI3K and radioactive ATP in the same well, by capturing the radioactive phospholipids to the SPA beads through their specific binding to neomycin.
To a 384 wells MTP containing 5 μl of the test compound of Formula (I) (solubilized in 6% DMSO; to yield a concentration of 100, 30, 10, 3, 1, 0.3, 0.1, 0.03, 0.01, 01 μM of the test compound), the following assay components are added. 1) 5 μl (58 ng) of Human recombinant GST-PI3Kγ (in Hepes 40 mM, pH 7.4, DTT 1 mM and ethylenglycol 5%) 2) 10 μl of lipid micelles and 3) 10 μl of Kinase buffer ([^33P]γ-ATP 45 μM/60 nCi, MgCl2 30 mM, DTT 1 mM, β-Glycerophosphate 1 mM, Na3VO4 100 μM, Na Cholate 0.3%, in Hepes 40 mM, pH 7.4). After incubation at room temperature for 180 minutes, with gentle agitation, the reaction is stopped by addition of 60 μl of a solution containing 100 μg of neomycin-coated PVT SPA beads in PBS containing ATP 10 mM and EDTA 5 mM. The assay is further incubated at room temperature for 60 minutes with gentle agitation to allow binding of phospholipids to neomycin-SPA beads. After precipitation of the neomycin-coated PVT SPA beads for 5 minutes at 1500×g, radioactive PtdIns(3)P is quantified by scintillation counting in a Wallac MicroBeta™ plate counter.
The values indicated in Table II below refer to the IC50 (μM) with respect to PI3Kγ, i.e. the amount necessary to achieve 50% inhibition of said target. Said values show a considerable inhibitory potency of thiazole compounds with regard to PI3Kγ.

[2] = system: PI3K induced Akt/PKB phosphorylation in Raw 264-7 macrophages; experiment: Cell based ELISA of Akt/PKB phosphorylation in macrophages after Complement 5a stimulation; details: Mus musculus, RAW264.7, 5 min, 50 nM Complement 5a for 5 minutes, read-out: Cell Assay (P-Akt, Elisa) IC50
Method: b) Cell Based ELISA to Monitor PI3K Inhibition:
The efficacy of compounds of the invention in inhibiting the PI3K induced Akt/PKB phosphorylation may be tested in the following cell based assay.
Measurement of Akt/PKB phosphorylation in macrophages after stimulation with Complement 5a: Raw 264: Raw 264-7 macrophages (cultured in DMEM-F12 medium containing 10% Fetal Calf serum and antibiotics) are plated at 20,000 cells/well in a 96 MTP 24 h before cell stimulation. Prior to the stimulation with 50 nM of Complement 5a during 5 minutes, Cells are serum starved for 2 h, and pretreated with inhibitors for 20 minutes. After stimulation cells are fixed in 4% formaldehyde for 20 minutes and washed 3 times in PBS containing 1% Triton X-100 (PBS/Triton). Endogenous peroxidase is blocked by a 20 minutes incubation in 0.6% H2O2 and 0.1% Sodium Azide in PBS/Triton and washed 3 times in PBS/Triton. Cells are then blocked by 60 minutes incubation with 10% fetal calf serum in PBS/Triton. Next, phosphorylated Akt/PKB is detected by an overnight incubation at 4° C. with primary antibody (anti phospho Serine 473 Akt IHC, Cell Signaling) diluted 800-fold in PBS/Triton, containing 5% bovine serum albumin (BSA). After 3 washes in PBS/Triton, cells are incubated for 60 minutes with a peroxidase conjugated goat-anti-rabbit secondary antibody (1/400 dilution in PBS/Triton, containing 5% BSA), washed 3 times in PBS/Triton, and 2 times in PBS and further incubated in 100 μl of luminescent substrate reagent solution (Pierce) for 2 minutes, followed by the reading (1 s/well).
The values indicated in Table III below reflect the percentage of inhibition of AKT phoshorylation as compared to basal level. Said values show a clear effect of the thiazole compounds on the activation of AKT phosphorylation in macrophages.

Neutrophil recruitment = experiment: Thioglycollate-induced peritoneal cavity cell recruitment model, neutrophils; format: in vivo, C3H mice; details: 10 mg/kg orally, lavage 4 h after thioglycollate
Method: Thioglycollate-Induced Pertioneal Cavity Cell Recruitment Model
The in vivo efficacy of compounds of the invention in inhibiting the migration of leukocytes upon intraperitoneal challenge of thioglycollate may be tested with the following assay.
8-10 weeks old female C3H mice are fasted during 18 hours. 15 minutes prior the intraperitoneal injection of thioglycollate (1.5%, 40 ml/kg), the mice are treated orally with Thiazoles of Formula (I). Control mice receive CMC/Tween as vehicle (10 ml/kg). The mice are then sacrificed by CO2 inhalation and the peritoneal cavity is washed two times with 5 ml of ice-cold PBS/1 mM EDTA. The lavages are done 4 hours or 48 hours after thioglycollate challenge to evaluate neutrophils or macrophages recruitment, respectively. The white blood cells (neutrophils, lymphocytes or macrophages) are counted using a Beckman Coulter® A ^cT 5diff™. Dexamethasone is used as reference drug.

Sequence of Human recombinant GST-PI3Kγ (P48736 whole entry): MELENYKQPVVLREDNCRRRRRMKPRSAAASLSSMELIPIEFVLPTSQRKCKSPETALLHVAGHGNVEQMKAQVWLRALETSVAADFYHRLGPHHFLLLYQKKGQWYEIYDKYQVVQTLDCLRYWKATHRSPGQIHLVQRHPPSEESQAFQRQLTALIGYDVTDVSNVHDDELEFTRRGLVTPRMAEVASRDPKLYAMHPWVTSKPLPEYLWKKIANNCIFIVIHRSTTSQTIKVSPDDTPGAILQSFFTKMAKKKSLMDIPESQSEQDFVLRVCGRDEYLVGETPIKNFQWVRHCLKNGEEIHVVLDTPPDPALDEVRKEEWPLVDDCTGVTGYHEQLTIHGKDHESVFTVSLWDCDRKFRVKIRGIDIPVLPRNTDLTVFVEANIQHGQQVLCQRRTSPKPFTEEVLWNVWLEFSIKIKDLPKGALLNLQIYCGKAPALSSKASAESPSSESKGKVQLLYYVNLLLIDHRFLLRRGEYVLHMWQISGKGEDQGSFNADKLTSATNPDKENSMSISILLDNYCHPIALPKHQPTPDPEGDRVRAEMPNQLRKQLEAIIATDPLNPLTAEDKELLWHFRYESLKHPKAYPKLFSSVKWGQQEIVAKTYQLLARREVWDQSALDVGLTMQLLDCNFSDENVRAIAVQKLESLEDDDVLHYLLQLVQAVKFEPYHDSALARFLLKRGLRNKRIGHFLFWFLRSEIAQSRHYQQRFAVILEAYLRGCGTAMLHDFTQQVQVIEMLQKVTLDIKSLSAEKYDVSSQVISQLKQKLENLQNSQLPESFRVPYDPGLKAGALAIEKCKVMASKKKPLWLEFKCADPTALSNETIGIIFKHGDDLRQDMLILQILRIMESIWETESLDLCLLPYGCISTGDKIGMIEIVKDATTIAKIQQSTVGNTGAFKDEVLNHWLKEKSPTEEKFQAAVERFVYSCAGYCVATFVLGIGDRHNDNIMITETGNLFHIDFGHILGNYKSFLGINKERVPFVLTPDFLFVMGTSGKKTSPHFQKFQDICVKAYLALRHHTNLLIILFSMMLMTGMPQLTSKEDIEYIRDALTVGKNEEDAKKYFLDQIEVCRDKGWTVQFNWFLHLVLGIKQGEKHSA

SMILES	IC50 [1] [nM]	IC50 [2] [nM]	% inhibition of Neutrophil recruitment at 10 mg/kg after 4 h (Neutrophil recruitment) [%]
CC(=O)Nc1nc(C)c(-c2ccc(S(=O)(=O)N[C@@H](CO)C(=O)O)s2)s1 [Example 16, N-({5-[2-(acetylamino)-4-methyl-1,3-thiazol-5-yl]-2-thienyl}sulfonyl)serine]	373		
COC(=O)CCCC(=O)Nc1nc(C)c(-c2ccc(S(=O)(=O)NCCN3CCOCC3)s2)s1 [Example 7, methyl 5-{[4-methyl-5-(5-{[(2-morpholin-4-ylethyl)amino]sulfonyl}-2-thienyl)-1,3-thiazol-2-yl]amino}-5-oxopentanoate]	1200		
CC(=O)Nc1nc(C)c(-c2ccc(S(=O)(=O)NCC(O)CO)s2)s1 (stereo not drawn) [Example 17, N-[5-(5-{[(2,3-dihydroxypropyl)amino]sulfonyl}-2-thienyl)-4-methyl-1,3-thiazol-2-yl]acetamide]	71		
CC(=O)Nc1nc(C)c(-c2ccc(S(=O)(=O)NCCCN(C)C)s2)s1 [Example 10, N-{5-[5-({[3-(dimethylamino)propyl]amino}sulfonyl)-2-thienyl]-4-methyl-1,3-thiazol-2-yl}acetamide]	289	1290	58
CC(=O)NCCNS(=O)(=O)c1ccc(-c2sc(NC(C)=O)nc2C)s1 [Example 13, N-{5-[5-({[2-(acetylamino)ethyl]amino}sulfonyl)-2-thienyl]-4-methyl-1,3-thiazol-2-yl}acetamide]	109		
CNC(=O)CNS(=O)(=O)c1ccc(-c2sc(NC(C)=O)nc2C)s1 [Example 12, N~2~-({5-[2-(acetylamino)-4-methyl-1,3-thiazol-5-yl]-2-thienyl}sulfonyl)-N~1~-methylglycinamide]	522		
CC(=O)Nc1nc(C)c(-c2ccc(S(=O)(=O)N(C)CCN(C)C)s2)s1 [Example 5, N-[5-(5-{[[2-(dimethylamino)ethyl](methyl)amino]sulfonyl}-2-thienyl)-4-methyl-1,3-thiazol-2-yl]acetamide]	20		
CC(=O)Nc1nc(C)c(-c2ccc(S(=O)(=O)NCC3COC(C)(C)O3)s2)s1 (stereo not drawn) [Example 14, N-{5-[5-({[(2,2-dimethyl-1,3-dioxolan-4-yl)methyl]amino}sulfonyl)-2-thienyl]-4-methyl-1,3-thiazol-2-yl}acetamide]	198		
COC(=O)[C@H](CO)NS(=O)(=O)c1ccc(-c2sc(NC(C)=O)nc2C)s1 [Example 15, methyl N-({5-[2-(acetylamino)-4-methyl-1,3-thiazol-5-yl]-2-thienyl}sulfonyl)serinate]	70		

More lines, main results first:

IC50 [1] [nM]	IC50 [2] [nM]	SMILES	% inhibition of Neutrophil recruitment at 10 mg/kg after 4 h (Neutrophil recruitment) [%]
200		CC(=O)Nc1nc(C)c(-c2ccc(S(=O)(=O)N3CCNCC3)s2)s1 [Example 11, N-{4-methyl-5-[5-(piperazin-1-ylsulfonyl)-2-thienyl]-1,3-thiazol-2-yl}acetamide]	
67		CC(=O)Nc1nc(C)c(-c2csc(S(=O)(=O)N3CCNCC3)c2)s1 [Example 26, N-{4-methyl-5-[5-(piperazin-1-ylsulfonyl)-3-thienyl]-1,3-thiazol-2-yl}acetamide]	
298		CC(=O)Nc1nc(C)c(-c2ccc(S(=O)(=O)NC3CCN(C)CC3)s2)s1 [Example 4, N-[4-methyl-5-(5-{[(1-methylpiperidin-4-yl)amino]sulfonyl}-2-thienyl)-1,3-thiazol-2-yl]acetamide]	
28	460	CC(=O)Nc1nc(C)c(-c2csc(S(=O)(=O)N3CCN(C)CC3)c2)s1 [Example 29, N-(4-methyl-5-{5-[(4-methylpiperazin-1-yl)sulfonyl]-3-thienyl}-1,3-thiazol-2-yl)acetamide]	28
105		CC(=O)Nc1nc(C)c(-c2ccc(S(=O)(=O)N(C)C)s2)s1 [Example 18, N-(5-{5-[(dimethylamino)sulfonyl]-2-thienyl}-4-methyl-1,3-thiazol-2-yl)acetamide]	
158	850	CC(=O)Nc1nc(C)c(-c2ccc(S(=O)(=O)NCCN3CCOCC3)s2)s1 [Example 9, N-[4-methyl-5-(5-{[(2-morpholin-4-ylethyl)amino]sulfonyl}-2-thienyl)-1,3-thiazol-2-yl]acetamide]	48
170		CC(=O)Nc1nc(C)c(-c2ccc(S(=O)(=O)N3CCN(C)CC3)s2)s1 [Example 8, N-(4-methyl-5-{5-[(4-methylpiperazin-1-yl)sulfonyl]-2-thienyl}-1,3-thiazol-2-yl)acetamide]	
16		CC(=O)Nc1nc(C)c(-c2csc(S(=O)(=O)NCCN3CCOCC3)c2)s1 [Example 24, N-[4-methyl-5-(5-{[(2-morpholin-4-ylethyl)amino]sulfonyl}-3-thienyl)-1,3-thiazol-2-yl]acetamide]	
	150	CC(=O)Nc1nc(C)c(-c2csc(S(=O)(=O)N3CCCC(O)C3)c2)s1 (stereo not drawn) [Example 48, N-(5-{5-[(3-hydroxypiperidin-1-yl)sulfonyl]-3-thienyl}-4-methyl-1,3-thiazol-2-yl)acetamide]	
28	480	CC(=O)Nc1nc(C)c(-c2csc(S(=O)(=O)NCCN(C)C)c2)s1 [Example 23, N-{5-[5-({[2-(dimethylamino)ethyl]amino}sulfonyl)-3-thienyl]-4-methyl-1,3-thiazol-2-yl}acetamide]	
119	660	C#CCNS(=O)(=O)c1ccc(-c2sc(NC(C)=O)nc2C)s1 [Example 1, N-(4-methyl-5-{5-[(prop-2-yn-1-ylamino)sulfonyl]-2-thienyl}-1,3-thiazol-2-yl)acetamide]	
27	> 30000	CC(=O)Nc1nc(C)c(-c2csc(S(=O)(=O)N3CCOCC3)c2)s1 [Example 46, N-{4-methyl-5-[5-(morpholin-4-ylsulfonyl)-3-thienyl]-1,3-thiazol-2-yl}acetamide]	36
396		CC(=O)Nc1nc(C)c(-c2ccc(S(=O)(=O)N3CCN(C(C)=O)CC3)s2)s1 [Example 2, N-(5-{5-[(4-acetylpiperazin-1-yl)sulfonyl]-2-thienyl}-4-methyl-1,3-thiazol-2-yl)acetamide]	
78		CC(=O)Nc1nc(C)c(-c2csc(S(=O)(=O)NC3CCN(C)CC3)c2)s1 [Example 28, N-[4-methyl-5-(5-{[(1-methylpiperidin-4-yl)amino]sulfonyl}-3-thienyl)-1,3-thiazol-2-yl]acetamide]	
